Reference: ChEMBL document CHEMBL1142794, “New alpha-methylene-gamma-butyrolactones with antimycobacterial properties” (2005)
Values after ≈ are worked out from the molar mass of the structure shown.

How the values were obtained:
[1] = tested on: Mycobacterium tuberculosis variant bovis; assay: In vitro minimum inhibitory concentration dissolved in DMSO against Mycobacterium bovis BCG using BACTEC 460 radiometric system; Range=0.75-1.5 ug/mL; assay type: functional
[2] = tested on: Mycobacterium tuberculosis variant bovis; assay: In vitro minimum inhibitory concentration dissolved in DMSO against Mycobacterium bovis BCG using BACTEC 460 radiometric system; assay type: functional

SMILES	MIC99 [1] [µg/mL]	MIC99 [2] [µg/mL]
CCCCCCCCCCS(=O)(=O)NC(C)=O	1.5 (≈ 5.69 µM)	
C=CCNC(=O)[C@@H]1C(=C)C(=O)O[C@H]1CCCCCC		12.5 (≈ 47.1 µM)
C=C1C(=O)O[C@@H](CCCCCCCC)[C@@H]1C(=O)NCC(=O)O		> 25
C=C1C(=O)O[C@@H](CCCCCCCC)[C@@H]1C(=O)NCC(=O)OC		25 (≈ 76.8 µM)
C=C1C(=O)O[C@@H](CCCCCCCC)C1C(=O)O (stereo not given in full)		> 25
C=C1C(=O)O[C@@H](CCCCCCCC)C1C(=O)OC (stereo not given in full)		> 25
C=C1C(=O)O[C@@H](CCCCCCCC)[C@@H]1C(=O)NNc1cccc(Cl)c1		> 25
C=CCNC(=O)[C@@H]1C(=C)C(=O)O[C@H]1CCCCCCCCCCCC		6.25 (≈ 17.9 µM)
C=C1C(=O)O[C@@H](CCCCCCCC)[C@@H]1C(=O)NCc1ccccc1		25 (≈ 72.8 µM)
CCCC[C@@H]1OC(=O)C(=O)C1C(=O)OC (stereo not given in full)		> 25
C=CCNC(=O)[C@H]1[C@H](CCCCCCCC)OC(=O)[C@H]1C		> 25
C=CCNC(=O)[C@H]1[C@H](CCCCCCCC)OC(=O)[C@@H]1C		> 25
C=CCNC(=O)[C@@H]1C(=C)C(=O)O[C@H]1CCCCCCCC		12.5 (≈ 42.6 µM)
C=C1C(=O)O[C@@H](CCCCCCCC)[C@@H]1C(=O)NCCO		25 (≈ 84.1 µM)
CCCCCCCCCC[C@@H]1OC(=O)C(=O)C1C(=O)OC (stereo not given in full)		> 25
CCCCCCCC[C@@H]1OC(=O)C(=O)C1C(=O)OC (stereo not given in full)		> 25
C=CCNC(=O)[C@@H]1C(=C)C(=O)O[C@H]1CCCC		12.5 (≈ 52.7 µM)
C=C1C(=O)O[C@@H](CCCCCCCC)[C@@H]1C(=O)NC/C=C/CC(=O)OC		25 (≈ 68.4 µM)
C=CCNC(=O)OCCNC(=O)[C@@H]1C(=C)C(=O)O[C@H]1CCCCCCCC		> 25
NNC(=O)c1ccncc1 [ISONIAZID]		0.1 (≈ 0.729 µM)
